The source of these data is patent publication EP0484596A1, “Organotin compounds and anti-tumor compositions containing them” (priority 1990, dated 1992).

The subject of one experiment is MCF-7 mammary carcinoma. In words: in vitro cell growth inhibition, PIT method, MCF-7. Format: cell-based, human. Conditions: amount which inhibits 50% of the cell growth. On the procedure: (§1) The compounds (1), (2) and (3) as well as their starting compounds, i.e. (4), (5) and (6) respectively, [drawing 8] were tested in vitro against the following human tumor cell lines • MCF-7 mammary carcinoma • WiDr colon tumor cells
(§2) The tests were carried out according to the method of R. van Lambalgen and P. Lelieveld, The PIT Method: an automated in vitro technique for drug toxicity testing. Invest. New Drug 5, 161-165 (1987).
(§3) The ID50 values in ng/ml for the above compounds were determined, i.e. the amount which inhibits 50% of the cell growth.

The test system of another experiment is WiDr colon tumor cells. Kind of experiment: in vitro cell growth inhibition, PIT method, WiDr. Format: cell-based, human. Conditions: amount which inhibits 50% of the cell growth. The protocol: as §1, §2, §3

Take `N.N.[Cl][Pt][Cl]` [Cis-platin]: the ID50 in the experiment with MCF-7 mammary carcinoma was 0.85 µg/mL; with WiDr colon tumor cells, 0.624 µg/mL.
